Earlier results, collected in patent publication US20140366219A1, “Increasing Soybean Defense Against Pests” (priority 2011, published 2014).

How the values were obtained:
Conditions in all cases: esterase activity toward MeSA; cited from earlier work
NtSABP2 = target: T1, NtSABP2 (Nicotiana tabacum, UniProt Q6RYA0)
T1 sequence (Q6RYA0 1-260): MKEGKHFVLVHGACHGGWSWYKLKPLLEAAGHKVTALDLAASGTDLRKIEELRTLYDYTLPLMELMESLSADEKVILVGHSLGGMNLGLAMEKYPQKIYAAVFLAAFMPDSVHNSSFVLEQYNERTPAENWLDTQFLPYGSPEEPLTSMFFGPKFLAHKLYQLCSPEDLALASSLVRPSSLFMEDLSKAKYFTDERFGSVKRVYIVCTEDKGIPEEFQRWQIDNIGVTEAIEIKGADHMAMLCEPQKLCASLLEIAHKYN

PtSABP2-2 = tested on: PtSABP2-2
AtMES1 = target: T2, AtMES1 (Arabidopsis thaliana, UniProt Q8S8S9)
T2 sequence (Q8S8S9 1-263): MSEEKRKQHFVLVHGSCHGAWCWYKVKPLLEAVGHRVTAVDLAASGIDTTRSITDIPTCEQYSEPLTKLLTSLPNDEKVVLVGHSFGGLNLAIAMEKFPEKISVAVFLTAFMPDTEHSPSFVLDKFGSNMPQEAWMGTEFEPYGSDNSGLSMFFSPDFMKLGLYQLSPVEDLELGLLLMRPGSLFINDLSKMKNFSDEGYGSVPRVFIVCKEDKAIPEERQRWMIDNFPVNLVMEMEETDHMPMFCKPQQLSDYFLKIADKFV

AtMES9 = target: T3, AtMES9 (Arabidopsis thaliana, UniProt O23171)
T3 sequence (O23171 1-256): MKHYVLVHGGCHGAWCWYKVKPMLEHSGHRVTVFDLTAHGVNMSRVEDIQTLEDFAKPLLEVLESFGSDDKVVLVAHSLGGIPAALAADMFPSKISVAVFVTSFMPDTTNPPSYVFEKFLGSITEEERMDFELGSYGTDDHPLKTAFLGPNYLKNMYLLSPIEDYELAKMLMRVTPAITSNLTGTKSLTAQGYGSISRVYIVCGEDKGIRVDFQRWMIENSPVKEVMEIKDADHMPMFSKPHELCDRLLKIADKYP

PtSABP2-1 = tested on: PtSABP2-1
StMES1 = tested on: StMES1

**Q.** With `COC(=O)c1ccccc1O` [MeSA, methyl salicylate] as the compound, how does the Km (NtSABP2) read?
**A.** Its Km is 8.6 µM.

**Q.** And the Km (PtSABP2-2)?
**A.** Its Km is 24.6 µM.

**Q.** And the Km (AtMES1)?
**A.** The Km was 57.3 µM.

**Q.** What about the Km (AtMES9) of the same compound?
**A.** The Km was 147 µM.

**Q.** And the Km (PtSABP2-1)?
**A.** Its Km is 68.2 µM.

**Q.** What about the Km (StMES1) of the same compound?
**A.** The Km was 57.9 µM.
